Read-outs that look alike come from different tables or passages of the source.
Key:
[1] = cited from earlier work
[2] = test system: organic anion transporting polypeptide 1B1 (OATP1B1); parameters: method as in PMID 27936281, PMID 19785645, PMID 29538325; conditions: cited from earlier work
[3] = Pharmacokinetic study of FLV in rabbits after oral FLV alone and with EMP; type: in vivo, New Zealand white rabbits; conditions: mean ± SD; for AUC(0-t) / k el / half-life / AUC(0-inf) / Cmax / MRT: rabbit, plasma, po, 2 mg/kg; for AUC(0-t): read-out: AUC0-24; for k el: read-out: Ke (elimination rate constant) (converted); for half-life: read-out: t0.5 (elimination half-life) (converted)
Description: Ethical approval (under the No. 06/2023/0111) for this research was granted by the ethics committee at Assiut University, Egypt, and the study was conducted in adherence to the principles outlined in the Declaration of Helsinki. The study involved six New Zealand white rabbits, each weighing 2.0 ± 0.2 kg, obtained from a licensed animal supplier in Assiut, Egypt. Before commencing the study, the rabbits' health was evaluated, ensuring they were in good condition. The rabbits were individually housed in cages measuring 0.8 × 0.6 × 0.5 m and given a 15 day acclimatization period to adjust to the experimental conditions and handling. During this time, no medications or vaccines were administered to the rabbits. The room temperature was kept constant at 25 ± 2 °C, and the relative humidity was maintained at 50 ± 5%. Throughout the acclimatization period, the rabbits were provided with a commercial pellet diet and water. Before the experiment began, the rabbits fasted for approximately 12 hours while being allowed access to water.
The rabbits administered FLV via oral route at a dose of 2.0 mg kg^−1. After a washout period of 14 days to allow any FLV to clear from the rabbits' bodies, the same rabbits administered both (2 mg kg^−1 for FLV and 1.5 mg kg^−1 for EMP). Blood samples (1.0 mL) were collected after administration of the studied analytes after 0.25, 0.5, 1, 1.5, 3, 5, 7, 10, 12, 18 and 24 h of their administration. The samples were drawn from marginal ear vein, placed into tubes that had been heparinized, and centrifuged for 15 minutes at 6000 rpm. The plasma was then collected and stored at −20 °C in dark containers until analysis. The pharmacokinetic parameters of FLV were calculated using one compartment model for the treated group using Phoenix®WinNonlin software version 5.1 (Pharsight, Mountain View, CA, USA). These parameters included total area under the curve (AUC) from 0 to 24 hours (AUC0→24), cumulative plasma concentration from 0 to infinity (AUC0→∞), peak plasma concentration (Cmax), elimination rate constant (Ke), mean residence time (MRT), absorption half-life (t1/2a), and elimination half-life (t1/2). The data are reported as mean ± standard deviation (mean ± SD). To analyze differences in parameters between the groups, t-test was employed, using GraphPad Prism 9.0.

[4] = carboxylic acid functional group; no reference given; cited from earlier work
[5] = New Zealand white, FLV (2 mg kg−1) co-administered with EMP (1.5 mg kg−1), oral, rabbit plasma
[6] = New Zealand white, FLV (2 mg kg−1) co-administered with EMP (1.5 mg kg−1), rabbit plasma
[7] = New Zealand white, FLV alone, oral 2.0 mg kg−1, rabbit plasma

Ka ([3]; FLV (2 mg kg−1) co-administered with EMP (1.5 mg kg−1), oral, rabbit plasma) | Ka ([3]; FLV alone, oral 2.0 mg kg−1, rabbit plasma) | AUC(0-t) [3, 5] | k el [3, 5] | half-life [3, 5] | AUC(0-inf) [3, 6] | Cmax [3, 6] | MRT [3, 6] | AUC(0-inf) [3, 7] | Cmax [3, 7] | MRT [3, 7] | AUC(0-t) [3, 7] | k el [3, 7] | half-life [3, 7] | Tmax [3, 5] | Structure (SMILES) | log P [1] | Effect on OATP1B1 transporter [2] | pKa [4]
– | – | – | – | – | – | – | – | – | – | – | – | – | – | – | OC[C@H]1O[C@@H](c2ccc(Cl)c(Cc3ccc(O[C@H]4CCOC4)cc3)c2)[C@H](O)[C@@H](O)[C@@H]1O [EMP, Empagliflozin] | 1.7 | inhibit | –
2.52 ± 0.42 h⁻¹ | 2.24 ± 0.42 h⁻¹ | 2580 ± 245 ng·h/mL | 2.5e-05 s⁻¹ | 7.73 h | 2900 ± 189 ng·h/mL | 352 ng/mL | 7.66 ± 0.77 h | 1370 ± 144 ng·h/mL | 250 ng/mL | 6.99 ± 0.89 h | 1340 ± 452 ng·h/mL | 4.44e-05 s⁻¹ | 4.27 h | 1.5 h | CC(C)n1c(/C=C/C(O)CC(O)CC(=O)O)c(-c2ccc(F)cc2)c2ccccc21 (stereo not shown) [FLV, Fluvastatin] | 4.5 | – | around 4.8

Source: PMC10595561, “A novel microextraction technique aided by air agitation using a natural hydrophobic deep eutectic solvent for the extraction of fluvastatin and empagliflozin from plasma samples: application to pharmacokinetic and drug–drug interaction study” (RSC Advances, 2023)
